In ChEMBL document CHEMBL5329222, “Discovery of novel tubulin CBSI (R)-9k from the indanone scaffold for the treatment of colorectal cancer” (RSC Med Chem, 2023):
Calls of active or inactive are those of the source. No cut-off for these calls is given here.

Tests used:
Tubulin = test: Inhibition of tubulin (unknown origin) polymerization; type: protein-complex assay, Homo sapiens
HCT-116 [1] = test: Antiproliferative activity against human HCT-116 cells assessed as inhibition of cell growth incubated for 1.5 hrs by CCK-8 assay; type: functional, cell-based; details: HCT-116, 1.5 h
HeLa [2] = test: Antiproliferative activity against human HeLa cells assessed as inhibition of cell growth incubated for 1.5 hrs by CCK-8 assay; type: functional, cell-based
A2780 [3] = test: Antiproliferative activity against human A2780 cells assessed as inhibition of cell growth incubated for 1.5 hrs by CCK-8 assay; type: functional, cell-based
SW480 = test: Growth inhibition of human SW480 cells incubated for 1.5 hrs by MTT assay; type: functional, cell-based
CT26 = test: Growth inhibition of CT26 cells incubated for 1.5 hrs by MTT assay; type: functional, cell-based; details: Mus musculus, CT26, 1.5 h
HCT-116 [4] = test: Growth inhibition of human HCT-116 cells incubated for 1.5 hrs by MTT assay; type: functional, cell-based; details: HCT-116, 1.5 h
HeLa [5] = test: Growth inhibition of human HeLa cells incubated for 1.5 hrs by MTT assay; type: functional, cell-based
A2780 [6] = test: Growth inhibition of human A2780 cells incubated for 1.5 hrs by MTT assay; type: functional, cell-based; details: A2780, 1.5 h
[7] = Cytotoxicity against HEK293 cells assessed as inhibition of cell growth incubated 1.5 hrs by MTT assay; type: toxicity, cell-based; details: human
[8] = Cytotoxicity against human HUVEC cells assessed as inhibition of cell growth incubated 1.5 hrs by MTT assay; type: toxicity, cell-based
MDA-MB-231 = test: Antiproliferative activity against human MDA-MB-231 cells assessed as inhibition of cell growth incubated for 24 hrs by MTT assay; type: functional, cell-based; details: MDA-MB-231, 24 h
MCF7 = test: Antiproliferative activity against human MCF7 cells assessed as inhibition of cell growth incubated for 24 hrs by MTT assay; type: functional, cell-based; details: MCF7, 24 h
Estrogen receptor beta = Estrogen receptor beta (Homo sapiens, UniProt Q92731); test: Binding affinity to human recombinant ERbeta incubated for 20 mins
HCT-116 [9] = test: Inhibition of colony formation in human HCT-116 cells at 0.1 uM incubated for 48 hrs by crystal violet staining based analysis; type: functional
[10] = target: Tubulin beta (Homo sapiens) (UniProt P68371+Q9H4B7+Q13509+P04350+Q3ZCM7+P07437+Q13885+Q9BVA1+Q9BUF5+A6NNZ2); test: Binding affinity to beta-tubulin colchicine binding site in human HCT-116 cells assessed as inhibition of EBI-beta-tubulin adduct band formation at 5 to 25 uM preincubated for 2 hrs followed by EBI addition measured after 1.5 hrs by EBI competition based Western blotting analysis; type: cell-based; details: dose 5-25 µM, time 3.5 hrs
HeLa [11] = test: Potency index, ratio of 5-fluorouracil IC50 to test compound IC50 for antiproliferative activity against human HeLa cells assessed as inhibition of cell growth; type: functional
A2780 [12] = test: Potency index, ratio of 5-fluorouracil IC50 to test compound IC50 for antiproliferative activity against human A2780 cells assessed as inhibition of cell growth; type: functional
HCT-116 [13] = test: Potency index, ratio of 5-fluorouracil IC50 to test compound IC50 for antiproliferative activity against human HCT-116 cells assessed as inhibition of cell growth; type: functional

Sequence of Estrogen receptor beta (Q92731 whole entry): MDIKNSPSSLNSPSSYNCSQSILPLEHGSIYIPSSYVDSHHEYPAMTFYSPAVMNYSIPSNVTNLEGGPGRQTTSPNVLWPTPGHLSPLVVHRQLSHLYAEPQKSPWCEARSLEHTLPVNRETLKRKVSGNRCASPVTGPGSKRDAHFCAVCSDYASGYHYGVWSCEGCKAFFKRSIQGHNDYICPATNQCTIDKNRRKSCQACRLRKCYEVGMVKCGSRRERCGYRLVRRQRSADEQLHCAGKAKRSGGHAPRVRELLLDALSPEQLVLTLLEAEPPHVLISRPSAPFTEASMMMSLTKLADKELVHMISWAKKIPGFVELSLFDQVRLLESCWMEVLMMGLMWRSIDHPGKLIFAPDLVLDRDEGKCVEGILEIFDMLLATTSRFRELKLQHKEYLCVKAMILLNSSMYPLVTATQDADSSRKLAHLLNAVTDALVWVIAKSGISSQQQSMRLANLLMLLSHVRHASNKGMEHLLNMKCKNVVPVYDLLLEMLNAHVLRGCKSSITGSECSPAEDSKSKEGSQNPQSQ

Which IC50 (Tubulin) does the source give for `COc1ccc([C@H]2NC(=O)c3cc(OC)cc(OC)c32)cc1` here?
Its IC50 is greater than 100 µM.

Which IC50 (Tubulin) does the source give for `COc1ccc([C@H]2NC(=O)c3cc(OC)c(OC)c(OC)c32)cc1` here?
Its IC50 is 52 µM.

What does the source list for `COc1ccc(C2CC(=O)c3cc(OC)c(OC)c(OC)c32)cc1Br` (stereo not drawn)?
IC50 (HCT-116 [1]): 0.8 µM; IC50 (HeLa [2]): 3.52 µM; IC50 (A2780 [3]): 4.87 µM

For `COc1ccc(C2CC(=O)c3cc(OC)c(OC)c(OC)c32)cc1OC` (stereo not drawn), which IC50 (HCT-116 [1]) is on record?
Its IC50 is 13.3 µM.

And the IC50 (HeLa [2])?
The IC50 was 8.21 µM.

And the IC50 (A2780 [3])?
Its IC50 is 23.9 µM.

With `CCOc1ccc([C@@H]2CC(=O)c3cc(OC)c(OC)c(OC)c32)cc1F` as the compound, how does the IC50 (SW480) read?
Its IC50 is 4.52 µM.

And the IC50 (CT26)?
The IC50 was 10.8 µM.

And the IC50 (HCT-116 [4])?
The IC50 was 0.58 µM.

What about the IC50 (HeLa [5]) of the same compound?
The IC50 was 1.05 µM.

And the IC50 (A2780 [6])?
The IC50 was 3.69 µM.

For `COc1ccc(C2CC(=O)c3cc(OC)c(OC)c(OC)c32)cc1` (stereo not drawn), which IC50 (HCT-116 [1]) is on record?
The IC50 was 1.88 µM.

And the IC50 (HeLa [2])?
The IC50 was 0.43 µM.

What about the IC50 (A2780 [3]) of the same compound?
Its IC50 is 0.69 µM.

Which results are given for `O=c1[nH]cc(F)c(=O)[nH]1` [FLUOROURACIL]?
IC50 at 1.5 h [7]: 5.11 µM; IC50 (SW480): 37.5 µM; IC50 (CT26): 59.2 µM; IC50 (HeLa [2]): 15.7 µM; IC50 (A2780 [6]): 32.1 µM; IC50 at 1.5 h [8]: 0.43 µM; IC50 (A2780 [3]): 36.3 µM

Which results are given for `COc1ccc(C2CC(=O)c3cc(OC)c(OC)c(OC)c32)cc1F` (stereo not drawn)?
IC50 (HCT-116 [1]): 0.25 µM; IC50 (HeLa [2]): 0.6 µM; IC50 (A2780 [3]): 0.7 µM

With `COc1cc2c(c(OC)c1OC)C(c1ccc(SC)cc1)CC2=O` (stereo not drawn) as the compound, how does the IC50 (HCT-116 [1]) read?
Its IC50 is 1.82 µM.

What about the IC50 (HeLa [2]) of the same compound?
Its IC50 is 2.27 µM.

And the IC50 (A2780 [3])?
The IC50 was 2.91 µM.

Which IC50 (HCT-116 [1]) does the source give for `COc1cc(C2CC(=O)c3cc(OC)c(OC)c(OC)c32)cc(OC)c1OC` (stereo not drawn) here?
Its IC50 is greater than 100 µM.

What about the IC50 (HeLa [2]) of the same compound?
Its IC50 is greater than 100 µM.

What about the IC50 (A2780 [3]) of the same compound?
Its IC50 is greater than 100 µM.

With `COc1ccc(C2CC(=O)c3cc(OC)c(OC)c(OC)c32)cc1I` (stereo not drawn) as the compound, how does the IC50 (HCT-116 [1]) read?
The IC50 was 8.5 µM.

And the IC50 (HeLa [2])?
Its IC50 is 7.22 µM.

What about the IC50 (A2780 [3]) of the same compound?
Its IC50 is 7.58 µM.

For `COc1ccc([C@@H]2C(=O)c3ccc(OC)cc3[C@H]2c2ccc(OCCN3CCC(C)CC3)cc2)cc1`, which IC50 (MDA-MB-231) is on record?
Its IC50 is 3.94 µM.

And the IC50 (MCF7)?
The IC50 was 7.16 µM.

What about the IC50 (Estrogen receptor beta) of the same compound?
The IC50 was 0.51 µM.

For `COc1cc2c(c(OC)c1OC)-c1ccc(OC)c(=O)cc1[C@@H](NC(C)=O)CC2` [COLCHICINE], which IC50 at 1.5 h [7] is on record?
The IC50 at 1.5 h was 0.17 µM.

And the IC50 (HCT-116 [1])?
Its IC50 is 0.035 µM.

What about the IC50 (HeLa [2]) of the same compound?
Its IC50 is 0.026 µM.

And the inhibition (HCT-116 [9])?
Its inhibition is “Active”.

And the IC50 at 1.5 h [8]?
Its IC50 at 1.5 h is 9.62 µM.

What about the IC50 (A2780 [3]) of the same compound?
Its IC50 is 0.043 µM.

Which results are given for `COc1cc(OC)cc(C2CC(=O)c3cc(OC)c(OC)c(OC)c32)c1` (stereo not drawn)?
IC50 (HCT-116 [1]): > 100 µM; IC50 (HeLa [2]): > 100 µM; IC50 (A2780 [3]): > 100 µM

For `CCOc1ccc(C2CC(=O)c3cc(OC)c(OC)c(OC)c32)cc1Br` (stereo not drawn), which IC50 (HCT-116 [1]) is on record?
Its IC50 is 8.99 µM.

What about the IC50 (HeLa [2]) of the same compound?
The IC50 was 4.99 µM.

What about the IC50 (A2780 [3]) of the same compound?
Its IC50 is 4.11 µM.

Which Activity [10] does the source give for `CC[C@]1(O)C[C@H]2CN(CCc3c([nH]c4ccccc34)[C@@](C(=O)OC)(c3cc4c(cc3OC)N(C=O)[C@H]3[C@@](O)(C(=O)OC)[C@H](OC(C)=O)[C@]5(CC)C=CCN6CC[C@]43[C@@H]65)C2)C1` here?
Its Activity is “Active”.

With `CCOc1ccc(C2CC(=O)c3cc(OC)c(OC)c(OC)c32)cc1Cl` (stereo not drawn) as the compound, how does the IC50 (HCT-116 [1]) read?
Its IC50 is 1.86 µM.

What about the IC50 (HeLa [2]) of the same compound?
Its IC50 is 2.08 µM.

What about the IC50 (A2780 [3]) of the same compound?
The IC50 was 2.33 µM.

Which results are given for `COc1cc(C2CC(=O)c3cc(OC)c(OC)c(OC)c32)ccc1Cl` (stereo not drawn)?
IC50 (HCT-116 [1]): > 100 µM; IC50 (HeLa [2]): > 100 µM; IC50 (A2780 [3]): > 100 µM

Which “Ratio IC50” value (HeLa [11]) does the source give for `CCOc1ccc(C2CC(=O)c3cc(OC)c(OC)c(OC)c32)cc1F` (stereo not drawn) here?
Its value is 42.

What about the “Ratio IC50” value (A2780 [12]) of the same compound?
The value was 71.

And the IC50 (SW480)?
Its IC50 is 3.6 µM.

What about the IC50 (CT26) of the same compound?
Its IC50 is 5.24 µM.

What about the IC50 (HCT-116 [4]) of the same compound?
The IC50 was 0.35 µM.

What about the IC50 (HCT-116 [1]) of the same compound?
Its IC50 is 0.24 µM.

What about the IC50 (HeLa [5]) of the same compound?
Its IC50 is 0.66 µM.

And the IC50 (HeLa [2])?
Its IC50 is 0.37 µM.

What about the IC50 (A2780 [6]) of the same compound?
Its IC50 is 1.81 µM.

What about the “Ratio IC50” value (HCT-116 [13]) of the same compound?
Its value is 54.

What about the IC50 (A2780 [3]) of the same compound?
Its IC50 is 0.51 µM.

For `COc1cc2c(c(OC)c1OC)C(c1ccc(OC(C)(C)C)cc1)CC2=O` (stereo not drawn), which IC50 (HCT-116 [1]) is on record?
Its IC50 is 15.4 µM.

What about the IC50 (HeLa [2]) of the same compound?
The IC50 was 9.15 µM.

What about the IC50 (A2780 [3]) of the same compound?
The IC50 was 12.6 µM.

What does the source list for `COc1ccc(C2CC(=O)c3cc(OC)c(OC)c(OC)c32)cc1Cl` (stereo not drawn)?
IC50 (HCT-116 [1]): 0.31 µM; IC50 (HeLa [2]): 2.13 µM; IC50 (A2780 [3]): 2.52 µM

Which results are given for `CCOc1ccc(C2CC(=O)c3cc(OC)c(OC)c(OC)c32)cc1` (stereo not drawn)?
IC50 (HCT-116 [1]): 0.3 µM; IC50 (HeLa [2]): 0.48 µM; IC50 (A2780 [3]): 0.71 µM

For `COc1cc2c(c(OC)c1OC)C(c1ccc(OC(C)C)cc1)CC2=O` (stereo not drawn), which IC50 (HCT-116 [1]) is on record?
The IC50 was 17.3 µM.

What about the IC50 (HeLa [2]) of the same compound?
The IC50 was 6.87 µM.

And the IC50 (A2780 [3])?
The IC50 was 4.98 µM.

For `COc1ccc(C2CC(=O)c3cc(OC)c(OC)c(OC)c32)cc1[N+](=O)[O-]` (stereo not drawn), which IC50 (HCT-116 [1]) is on record?
The IC50 was 1.93 µM.

What about the IC50 (HeLa [2]) of the same compound?
Its IC50 is 2.22 µM.

What about the IC50 (A2780 [3]) of the same compound?
Its IC50 is 2.73 µM.
